From patent publication US6998394B2, “Process for isolating physalins from plants and pharmaceutical compositions containing physalins” (Fundacao Oswaldo Cruz - FIOCRUZ, priority 1999, dated 2006)
Converted amounts (≈) assume the structure as drawn.

What was measured:
[1] = tested on: Trypanosoma brucei rhodesiense; conditions: commonly used trypanocidal drug; cited from earlier work
[2] = tested on: human tumors like hepatoma, cervix uteri, lung and colon cells; conditions: in vivo and in vitro tests; cited from earlier work
[3] = tested on: trypomastigotes of Trypanosoma cruzi (Y strain); test: In vitro antitrypanosomial activity against T. cruzi trypomastigotes (count of viable parasites); type: cell-based
Description: In vitro studies using pure physalins are carried out with trypomastigotes of Trypanosoma cruzi.
T. cruzi Y strain is maintained in MK2 strain cell culture in a RPMI medium+10% bovine fetal serum, at 37° C., under 5% CO2. This material is centrifuged during 15 minutes at 1500 rpm. Afterwards, the material is maintained in rest at 37° C. for 2 hours. The supernatant is centrifuged again during 30 minutes at 3000 rpm. The trypomastigotes (5×10^5/well) in RPMI medium with 10% bovine fetal serum and antibiotic are incubated in wells with different concentrations of physalin B or physalin D. After 24–48 hours, the viable parasites maintained at a temperature of 4° C. are counted. Each experiment was carried out in triplicate.

[4] = tested on: promastigotes of Leishmania amazonensis; test: In vitro antileishmanicidal activity on promastigotes (MTT viability); type: cell-based; conditions: 20 μg/ml
Description: Stationary phase promastigotes of Leishmania amazonensis were obtained from parasite cultures in LIT medium with 10% bovine fetal serum. The assays were standardized in plates with 96 wells. Promastigotes were plaque harbored, in triplicate, in 100 μl of LIT medium. 10 μl of physalin B solution and 10 μl of a positive control (Amphotericin B) are added to the wells. Several dilutions were used. Parasite viability was determined after incubation with MTT by reading the absorbance at 570 nm in ELISA Microplate.

[5] = tested on: Leishmania amazonensis in peritoneal macrophages; test: In vitro infection assay using peritoneal macrophages infected with Leishmania amazonensis; type: cell-based; conditions: 10 μg/ml
Description: Peritoneal macrophages were incubated during 2 hours at 37° C. in 24 wells plates with laminas. After washing to remove non-bound cells, the wells were incubated with stationary phase promastigotes of Leishmania amazonensis (parasites/macrophages in a ratio of 10:1). After 18 hours, the cultures were washed to remove the free parasites. After 24 hours, physalin B solution is added to the wells. The laminas are collected, fixed with methanol and dyed with Giemsa. The infection level was determined by counting parasite quantity and the infected macrophages percentage.

[6] = tested on: TNFα production by macrophages; test: TNFα production by LPS-stimulated peritoneal macrophages (ELISA); type: cell-based; conditions: LPS 500 ng/ml, various concentrations, supernatants 4 hours after stimulation, FIG. 3A
Description: (§1) In a first test, thyoglycollate-elicited peritoneal macrophages were stimulated with LPS (500 ng/ml) in the presence of various concentrations of physalin B. Cell-free supernatants were collected 4 hours after stimulation and tested for TNα and IL-6 production by ELISA.

[7] = tested on: IL-6 production by macrophages; test: IL-6 production by LPS-stimulated peritoneal macrophages (ELISA); type: cell-based; conditions: LPS 500 ng/ml, various concentrations, supernatants 4 hours after stimulation, FIG. 3B
Description: as §1

[8] = tested on: nitric oxide production by macrophages; test: Nitric oxide (nitrite) production by stimulated peritoneal macrophages (Griess assay); type: cell-based; conditions: 24 hours
Description: In a second test, thyoglycollate-elicited peritoneal macrophages were stimulated with LPS (500 ng/ml), IFNγ (5 ng/ml), or IFNγ +LPS in the presence of various concentrations of physalin B. Cell-free supernatants were collected 24 hours after stimulation and tested for nitrite production by Griess assay.
In a third test, thyoglycollate-elicited peritoneal macrophages were stimulated with LPS (500 ng/ml)+IFNγ (5 ng/ml). Physalin B (2 μg/ml) was added 0, 2, 4 and 6 hours after IFNγ+LPS stimulation. Cell-free supernatants were collected 24 hours after stimulation and tested for nitrite production by Griess assay. IFNγ+LPS was used as control.
In a fourth test, thyoglycollate-elicited peritoneal macrophages were stimulated with LPS (500 ng/ml)+IFNγ (5 ng/ml) in the presence of physalin B (2 μg/ml) or indomethacyn (1 μg/ml). Cell-free supernatants were collected 24 hours after stimulation and tested for nitrite production by Griess assay.

[9] = tested on: ConA stimulated splenocytes; test: Proliferation of ConA-stimulated splenocytes (3H thymidine uptake); type: cell-based, BALB/c; conditions: ConA 1 μg/ml, several concentrations, FIG. 7
Description: In a fifth test, BALB/c spleen cells were stimulated with ConA (1 μg/ml) in the presence of several concentrations of physalin B. After 24 hours, cultures were pulsed with ^3H thymidine. Proliferation was assessed by measurement of thymidine uptake.

[10] = tested on: IL-2 production by ConA stimulated splenocytes; test: IL-2 production by ConA-stimulated splenocytes (ELISA); type: cell-based, BALB/c; conditions: ConA 1 μg/ml, several concentrations, 24 hours, FIG. 8
Description: In a sixth test, BALB/c spleen cells were stimulated with ConA (1 μg/ml) in the presence of several concentrations of physalin B. Cell-free supernatants were collected 24 hours after stimulation and tested for IL-2 production by ELISA.

[11] = tested on: BALB/c spleen cells or thyoglycollate-elicited peritoneal macrophages; test: Viability of spleen cells and peritoneal macrophages (MTT); type: cell-based; conditions: one day or three days of culturing, FIG. 9
Description: In the last test, BALB/c spleen cells or thyoglycollate-elicited peritoneal macrophages were cultured in the presence of several concentrations of physalin B. After one day (FIG. 9B) or three days (FIG. 9A) of culturing, plates were pulsed with MTT. Cell-viability was evaluated 2 hours later by optical density measuring at 570 nm.

SMILES: Cc1ccc(C(=O)Nc2ccc(S(=O)(=O)O)c3cc(S(=O)(=O)O)cc(S(=O)(=O)O)c23)cc1NC(=O)c1cccc(NC(=O)Nc2cccc(C(=O)Nc3cc(C(=O)Nc4ccc(S(=O)(=O)O)c5cc(S(=O)(=O)O)cc(S(=O)(=O)O)c45)ccc3C)c2)c1 [suramin]
- IC50 [1]: 10.7 ng/mL (≈ 8.25 nM)

SMILES: C[C@@H]1C(=O)O[C@@H]2C[C@@]1(C)C1C(=O)[C@]3(O)O[C@@]14[C@@](O)(CCC1C3[C@H](O)C=C3C=CCC(=O)[C@@]31C)C(=O)O[C@@]24C (stereo partly shown) [physalin L]
- activity against human tumors [2]: active

SMILES: C[C@@]12C[C@H]3OC(=O)[C@@H]1CO[C@@]14O[C@]5([C@H]2C1=O)[C@@](O)(CC[C@H]1[C@H]4C[C@@H](O)[C@@]2(O)CC=CC(=O)[C@]12C)C(=O)O[C@@]35C [Physalin D]
- Mortality of Parasite (%) ([3]; dose 40 μg/ml, contact period 24 hours): 100%
- Mortality of Parasite (%) ([3]; dose 40 μg/ml, contact period 48 hours): 100%
- activity against human tumors [2]: active

SMILES: C[C@@]12C[C@H]3OC(=O)[C@@H]1CO[C@]14O[C@]5([C@H]2C1=O)[C@@](O)(CC[C@H]1[C@H]4C[C@H]2O[C@]24CC=CC(=O)[C@]14C)C(=O)O[C@@]35C [physalin F]
- activity against human tumors [2]: active

SMILES: C=C1C(=O)O[C@@H]2C[C@@]1(C)[C@@H]1C(=O)[C@]3(O)O[C@]14[C@@]2(C)OC(=O)[C@@]4(O)CC[C@H]1[C@H]3[C@H](O)C=C2CC=CC(=O)[C@@]21C [physalin A]
- activity against human tumors [2]: active

SMILES: C[C@]12C(=O)C=CCC1=CC[C@@H]1[C@@H]2CC[C@]2(O)C(=O)O[C@@]3(C)[C@H]4C[C@]5(C)[C@@H](CO[C@@]16O[C@@]32[C@H]5C6=O)C(=O)O4 [Physalin B]
- Mortality of Parasite (%) ([3]; dose 2.5 mg/ml, contact period 24 hours): 100%
- Mortality of Parasite (%) ([3]; dose 2.5 mg/ml, contact period 48 hours): 100%
- parasite mortality [4]: 100%
- in vitro reduction in the infection of peritoneal macrophages [5]: 100%
- TNFα production by macrophages [6]: inhibitory properties
- IL-6 production by macrophages [7]: inhibitory properties
- nitric oxide production, physalin B added at different times ([8]; 2 μg/ml added 0, 2, 4 and 6 hours after IFNγ+LPS stimulation, FIG. 5): time-dependence of the inhibition
- nitric oxide production by macrophages ([8]; LPS 500 ng/ml, IFNγ 5 ng/ml or IFNγ+LPS, various concentrations, FIG. 4): inhibitory properties
- nitric oxide production in the presence of indomethacyn ([8]; LPS+IFNγ, physalin B 2 μg/ml, indomethacyn 1 μg/ml, FIG. 6): addition of indomethacyn does not block the inhibition
- proliferation of ConA stimulated splenocytes (thymidine uptake) [9]: inhibits proliferation
- IL-2 production by ConA stimulated splenocytes [10]: inhibits IL-2 production
- concentrations at which non-toxic in vitro (cell viability, MTT) [11]: below 5 μg/ml
